According to PubChem BioAssay (NCI):
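In this assay, cells in 96-well plates receive the compound at five concentrations for 48 hours. Endpoints are linearly interpolated between the surrounding concentrations. TGI marks complete inhibition of growth.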

Tests used:
Assay in all cases: inhibition of tumour cell growth, NCI panel, 48 h
786-0 renal = tested on: 786-0 renal
A549 NSCLC = tested on: A549 NSCLC
ACHN renal = tested on: ACHN renal
COLO 205 colon = tested on: COLO 205 colon
DMS 114 small cell lung = tested on: DMS 114 small cell lung
DMS 273 small cell lung = tested on: DMS 273 small cell lung
EKVX NSCLC = tested on: EKVX NSCLC
HCT-116 colon = tested on: HCT-116 colon
HCT-15 colon = tested on: HCT-15 colon
HOP-62 NSCLC = tested on: HOP-62 NSCLC
HT29 colon = tested on: HT29 colon
IGROV1 ovarian = tested on: IGROV1 ovarian
K-562 leukemia = tested on: K-562 leukemia
KM12 colon = tested on: KM12 colon
KM20L2 colon = tested on: KM20L2 colon
LOX IMVI melanoma = tested on: LOX IMVI melanoma
LXFL 529 NSCLC = tested on: LXFL 529 NSCLC
M14 melanoma = tested on: M14 melanoma
M19-MEL melanoma = tested on: M19-MEL melanoma
MALME-3M melanoma = tested on: MALME-3M melanoma
MOLT-4 leukemia = tested on: MOLT-4 leukemia
NCI-H226 lung = tested on: NCI-H226 lung
NCI-H23 lung = tested on: NCI-H23 lung
NCI-H460 lung = tested on: NCI-H460 lung
NCI-H522 lung = tested on: NCI-H522 lung
OVCAR-3 ovarian = tested on: OVCAR-3 ovarian
OVCAR-4 ovarian = tested on: OVCAR-4 ovarian
OVCAR-5 ovarian = tested on: OVCAR-5 ovarian
OVCAR-8 ovarian = tested on: OVCAR-8 ovarian
RPMI-8226 leukemia = tested on: RPMI-8226 leukemia
RXF 393 renal = tested on: RXF 393 renal
SF-268 CNS = tested on: SF-268 CNS
SF-295 CNS = tested on: SF-295 CNS
SF-539 CNS = tested on: SF-539 CNS
SK-MEL-2 melanoma = tested on: SK-MEL-2 melanoma
SK-MEL-28 melanoma = tested on: SK-MEL-28 melanoma
SK-MEL-5 melanoma = tested on: SK-MEL-5 melanoma
SN12C renal = tested on: SN12C renal
SNB-19 CNS = tested on: SNB-19 CNS
SNB-75 CNS = tested on: SNB-75 CNS
SNB-78 CNS = tested on: SNB-78 CNS
SW-620 colon = tested on: SW-620 colon
TK-10 renal = tested on: TK-10 renal
U251 CNS = tested on: U251 CNS
UACC-62 melanoma = tested on: UACC-62 melanoma
UO-31 renal = tested on: UO-31 renal
XF 498 CNS = tested on: XF 498 CNS
A498 renal = tested on: A498 renal
CAKI-1 renal = tested on: CAKI-1 renal
CCRF-CEM leukemia = tested on: CCRF-CEM leukemia
DLD-1 colon = tested on: DLD-1 colon
HCC-2998 colon = tested on: HCC-2998 colon
HL-60(TB) leukemia = tested on: HL-60(TB) leukemia
HOP-92 NSCLC = tested on: HOP-92 NSCLC
SK-OV-3 ovarian = tested on: SK-OV-3 ovarian
SR leukemia = tested on: SR leukemia
UACC-257 melanoma = tested on: UACC-257 melanoma

Measured: TGI

COC(=O)[C@]12CSCN1C(=O)C(C(C)=O)=NN2C(=O)[C@](OC)(c1ccccc1)C(F)(F)F
not listed: A498 renal | CAKI-1 renal | CCRF-CEM leukemia | DLD-1 colon | HCC-2998 colon | HL-60(TB) leukemia | HOP-92 NSCLC | SK-OV-3 ovarian | SR leukemia | UACC-257 melanoma
> 100 µM: all other assays above

CC(=O)c1c(P(=O)(OC(C)C)OC(C)C)nn(-c2ccc([N+](=O)[O-])cc2)c1C
not listed: 786-0 renal | LOX IMVI melanoma | NCI-H226 lung | RXF 393 renal | SNB-75 CNS
> 100 µM: all other assays above

COc1cccc(NC(=O)CC(=O)N2NC(c3ccccc3)C(N=Nc3cccc(C(=O)O)c3)C2=O)c1 (stereo not drawn)
not listed: COLO 205 colon | DMS 273 small cell lung | HCT-15 colon | K-562 leukemia | NCI-H522 lung | SK-MEL-2 melanoma | CCRF-CEM leukemia | HL-60(TB) leukemia
> 100 µM: all other assays above
